Results: patent US11524938B2, “Aromatic sulfonamide derivatives” (Bayer Pharma Aktiengesellschaft, priority 2016, dated 2022)

Target: T1, human P2X4 (Homo sapiens, UniProt Q99571)
T1 sequence (Q99571 1-388): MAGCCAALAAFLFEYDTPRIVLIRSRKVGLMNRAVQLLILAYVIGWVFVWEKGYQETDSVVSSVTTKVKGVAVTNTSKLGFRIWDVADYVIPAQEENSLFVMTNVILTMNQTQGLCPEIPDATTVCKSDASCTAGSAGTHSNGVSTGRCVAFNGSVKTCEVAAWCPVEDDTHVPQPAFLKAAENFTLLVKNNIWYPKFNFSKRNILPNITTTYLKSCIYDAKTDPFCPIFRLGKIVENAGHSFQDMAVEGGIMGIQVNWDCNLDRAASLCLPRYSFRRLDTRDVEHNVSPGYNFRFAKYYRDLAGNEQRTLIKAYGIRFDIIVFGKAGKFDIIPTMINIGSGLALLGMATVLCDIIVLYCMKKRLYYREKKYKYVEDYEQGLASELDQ
Test: Human P2X4 HEK Cell FLIPR Assay
Format: cell-based
Conditions: agonist Bz-ATP at EC80; for Emax: HEK293, HEK293 cells, percentage of maximal inhibition, read-out: Human P2X4 HEK Cells (FLIPR Assay) avg Efficacy [%]; for IC50: HEK293 cells, individual values listed where some fall outside detection range
In short: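 HEK293 cells stably expressing human P2X4, Fluo8-AM loaded 30 min at 37° C, then compound 30 min at room temperature (0.5% DMSO, pH 7.4 buffer with 1.8 mM CaCl2). Bz-ATP at its daily-determined EC80 added; calcium fluorescence read over 120 sec; IC50 from peak RFU normalized to agonist control, triplicates.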

Row | Compound | Emax | IC50
1 | NS(=O)(=O)c1cc(NC(=O)Cc2ccc(F)c(F)c2)ccc1-c1cncc(C(F)(F)F)c1 [Example 451, 2-(3,4-Difluorophenyl)-N-{3-sulfamoyl-4-[5-(trifluoromethyl)pyridin-3-yl]phenyl}acetamide] | 86% | 244 nM
2 | NS(=O)(=O)c1cc(NC(=O)Cc2cc(F)cc(F)c2)ccc1-c1cncc(C(F)(F)F)c1 [Example 452, 2-(3,5-Difluorophenyl)-N-{3-sulfamoyl-4-[5-(trifluoromethyl)pyridin-3-yl]phenyl}acetamide] | 65% | 76 nM
3 | Cc1ccc(CC(=O)Nc2ccc(-c3cncc(C(F)(F)F)c3)c(S(N)(=O)=O)c2)c(F)c1 [Example 456, 2-(2-Fluoro-4-methylphenyl)-N-{3-sulfamoyl-4-[5-(trifluoromethyl)pyridin-3-yl]phenyl}acetamide] | 59% | 18 nM
4 | NS(=O)(=O)c1cc(NC(=O)Cc2ccc(C(F)F)cc2)ccc1-c1cncc(C(F)(F)F)c1 [Example 458, 2-[4-(Difluoromethyl)phenyl]-N-{3-sulfamoyl-4-[5-(trifluoromethyl)pyridin-3-yl]phenyl}acetamide] | 85% | 1080 nM
5 | NS(=O)(=O)c1cc(NC(=O)Cc2ccc(Cl)cc2)ccc1-c1ccc(Cl)nc1 [Example 459, 2-(4-Chlorophenyl)-N-[4-(6-chloropyridin-3-yl)-3-sulfamoylphenyl]acetamide] | 88% | 1340 nM
6 | NS(=O)(=O)c1cc(NC(=O)Cc2c(F)cccc2Cl)ccc1-c1ccc(Cl)nc1 [Example 461, 2-(2-Chloro-6-fluorophenyl)-N-[4-(6-chloropyridin-3-yl)-3-sulfamoylphenyl]acetamide] | 93% | 137 nM
7 | NS(=O)(=O)c1cc(NC(=O)Cc2ccc(F)cc2F)ccc1-c1ccc(Cl)nc1 [Example 466, N-[4-(6-Chloropyridin-3-yl)-3-sulfamoylphenyl]-2-(2,4-difluorophenyl)acetamide] | 91% | 363 nM
8 | Cc1ccc(CC(=O)Nc2ccc(-c3ccc(Cl)nc3)c(S(N)(=O)=O)c2)cc1 [Example 469, N-[4-(6-Chloropyridin-3-yl)-3-sulfamoylphenyl]-2-(4-methylphenyl)acetamide] | 90% | 453 nM
9 | COc1ccc(CC(=O)Nc2ccc(-c3ccc(Cl)nc3)c(S(N)(=O)=O)c2)cc1 [Example 470, N-[4-(6-Chloropyridin-3-yl)-3-sulfamoylphenyl]-2-(4-methoxyphenyl)acetamide] | 93% | 483 nM
10 | COc1ccc(CC(=O)Nc2ccc(-c3ccc(Cl)nc3)c(S(N)(=O)=O)c2)c(F)c1 [Example 472, N-[4-(6-Chloropyridin-3-yl)-3-sulfamoylphenyl]-2-(2-fluoro-4-methoxyphenyl)acetamide] | 97% | 197 nM
11 | NS(=O)(=O)c1cc(NC(=O)Cc2ccc(Cl)cc2Cl)ccc1-c1cncc(F)c1 [Example 475, 2-(2,4-Dichlorophenyl)-N-[4-(5-fluoropyridin-3-yl)-3-sulfamoylphenyl]acetamide] | 88% | 64 nM
12 | NS(=O)(=O)c1cc(NC(=O)Cc2ccc(C(F)F)cc2)ccc1-c1cncc(F)c1 [Example 477, 2-[4-(Difluoromethyl)phenyl]-N-[4-(5-fluoropyridin-3-yl)-3-sulfamoylphenyl]acetamide] | 91% | 259 nM
13 | NS(=O)(=O)c1cc(NC(=O)Cc2ccccc2F)ccc1-n1nc2cc(F)cc(F)c2n1 [Example 479, N-[4-(4,6-Difluoro-2H-benzotriazol-2-yl)-3-sulfamoylphenyl]-2-(2-fluorophenyl)acetamide] | 79% | 145 nM
14 | NS(=O)(=O)c1cc(NC(=O)Cc2ccccc2F)ccc1-n1nnc2c(F)cc(F)cc21 [Example 480, N-[4-(4,6-Difluoro-1H-benzotriazol-1-yl)-3-sulfamoylphenyl]-2-(2-fluorophenyl)acetamide] | 105% | 125 nM
15 | NS(=O)(=O)c1cc(NC(=O)Cc2ccccc2Cl)ccc1-n1nnc2c(F)cc(F)cc21 [Example 481, 2-(2-Chlorophenyl)-N-[4-(4,6-difluoro-1H-benzotriazol-1-yl)-3-sulfamoylphenyl]acetamide] | 103% | 50 nM

More lines, in order of falling IC50, values ahead:

Row | Emax | IC50 | Compound
16 | 73% | 2340 nM | NS(=O)(=O)c1cc(NC(=O)Cc2ccccc2Cl)ccc1-n1nc2cc(F)cc(F)c2n1 [Example 482, 2-(2-Chlorophenyl)-N-[4-(4,6-difluoro-2H-benzotriazol-2-yl)-3-sulfamoylphenyl]acetamide]
17 | 58% | 1440 nM | Cc1ccc(CC(=O)Nc2ccc(-c3cncc(C(F)(F)F)c3)c(S(N)(=O)=O)c2)cc1 [Example 454, 2-(4-Methylphenyl)-N-{3-sulfamoyl-4-[5-(trifluoromethyl)pyridin-3-yl]phenyl}acetamide]
18 | 89% | 929 nM | NS(=O)(=O)c1cc(NC(=O)Cc2ccc(C(F)(F)F)cc2)ccc1-c1ccc(Cl)nc1 [Example 462, N-[4-(6-Chloropyridin-3-yl)-3-sulfamoylphenyl]-2-[4-(trifluoromethyl)phenyl]acetamide]
19 | 92% | 648 nM | NS(=O)(=O)c1cc(NC(=O)Cc2cccc(F)c2)ccc1-c1ccc(Cl)nc1 [Example 464, N-[4-(6-Chloropyridin-3-yl)-3-sulfamoylphenyl]-2-(3-fluorophenyl)acetamide]
20 | 84% | 646 nM | NS(=O)(=O)c1cc(NC(=O)Cc2ccccc2F)ccc1-c1ccc(Cl)nc1 [Example 460, N-[4-(6-Chloropyridin-3-yl)-3-sulfamoylphenyl]-2-(2-fluorophenyl)acetamide]
21 | 70% | 558 nM | COc1ccc(CC(=O)Nc2ccc(-c3cncc(C(F)(F)F)c3)c(S(N)(=O)=O)c2)c(F)c1 [Example 457, 2-(2-Fluoro-4-methoxyphenyl)-N-{3-sulfamoyl-4-[5-(trifluoromethyl)pyridin-3-yl]phenyl}acetamide]
22 | 93% | 530 nM | NS(=O)(=O)c1cc(NC(=O)Cc2ccc(C(F)F)cc2)ccc1-c1ccc(Cl)nc1 [Example 473, N-[4-(6-Chloropyridin-3-yl)-3-sulfamoylphenyl]-2-[4-(difluoromethyl)phenyl]acetamide]
23 | 93% | 323 nM | NS(=O)(=O)c1cc(NC(=O)Cc2ccc(C(F)(F)F)cc2Cl)ccc1-c1ccc(Cl)nc1 [Example 474, N-[4-(6-Chloropyridin-3-yl)-3-sulfamoylphenyl]-2-[2-chloro-4-(trifluoromethyl)phenyl]acetamide]
24 | 97% | 278 nM | NS(=O)(=O)c1cc(NC(=O)Cc2ccc(F)c(F)c2)ccc1-c1ccc(Cl)nc1 [Example 468, N-[4-(6-Chloropyridin-3-yl)-3-sulfamoylphenyl]-2-(3,4-difluorophenyl)acetamide]
25 | 92% | 269 nM | Cc1ccc(CC(=O)Nc2ccc(-c3ccc(Cl)nc3)c(S(N)(=O)=O)c2)c(F)c1 [Example 471, N-[4-(6-Chloropyridin-3-yl)-3-sulfamoylphenyl]-2-(2-fluoro-4-methylphenyl)acetamide]
26 | 77% | 74 nM | NS(=O)(=O)c1cc(NC(=O)Cc2cccc(Cl)c2)ccc1-c1cncc(C(F)(F)F)c1 [Example 453, 2-(3-Chlorophenyl)-N-{3-sulfamoyl-4-[5-(trifluoromethyl)pyridin-3-yl]phenyl}acetamide]
27 | 89% | 58 nM | Cc1ccc(CC(=O)Nc2ccc(-c3cncc(F)c3)c(S(N)(=O)=O)c2)c(F)c1 [Example 476, 2-(2-Fluoro-4-methylphenyl)-N-[4-(5-fluoropyridin-3-yl)-3-sulfamoylphenyl]acetamide]
28 | 82% | 47 nM | NS(=O)(=O)c1cc(NC(=O)Cc2ccccc2Cl)ccc1-n1cc(C2CC2)cn1 [Example 478, 2-(2-Chlorophenyl)-N-[4-(4-cyclopropyl-1H-pyrazol-1-yl)-3-sulfamoylphenyl]acetamide]
29 | 92% | 26 nM | NS(=O)(=O)c1cc(NC(=O)Cc2ccc(Cl)cc2Cl)ccc1-c1ccc(Cl)nc1 [Example 465, N-[4-(6-Chloropyridin-3-yl)-3-sulfamoylphenyl]-2-(2,4-dichlorophenyl)acetamide]
30 | 99% | 18 nM | NS(=O)(=O)c1cc(NC(=O)Cc2ccccc2C(F)(F)F)ccc1-c1ccc(Cl)nc1 [Example 463, N-[4-(6-Chloropyridin-3-yl)-3-sulfamoylphenyl]-2-[2-(trifluoromethyl)phenyl]acetamide]
31 | 93% | 9 nM | NS(=O)(=O)c1cc(NC(=O)Cc2ccccc2Br)ccc1-c1ccc(Cl)nc1 [Example 467, 2-(2-Bromophenyl)-N-[4-(6-chloropyridin-3-yl)-3-sulfamoylphenyl]acetamide]
32 | 74% | 5 nM | COc1ccc(CC(=O)Nc2ccc(-c3cncc(C(F)(F)F)c3)c(S(N)(=O)=O)c2)cc1 [Example 455, 2-(4-Methoxyphenyl)-N-{3-sulfamoyl-4-[5-(trifluoromethyl)pyridin-3-yl]phenyl}acetamide]
